Source: patent US8765748B2, “Indazolyl, benzimidazolyl, benzotriazolyl substituted indolinone derivatives as kinase inhibitors useful in the treatment of cancer” (University Health Network, priority 2007, dated 2014)

Key:
Experiment in all cases: Kinase Selectivity Assay (CEREP, HTRF)
Assay type in all cases: biochemical
Akt1/PKBa = target: T1, Akt1/PKBa (Homo sapiens, UniProt P31749); conditions: read-out: % Inhibition at 10 μM Concentration, Akt1/PKBalpha
T1 construct: CEREP, France (ran the assays)
Protocol: (§1) kinase, ROCK2, RSK2, Src kinase, Syk, and TRKA. The % Inhibition was determined

CHK1 = target: T2, CHK1 (Homo sapiens, UniProt O14757); conditions: read-out: % Inhibition at 10 μM Concentration, CHK1
T2 construct: CEREP, France (ran the assays)
T2 sequence (O14757 1-476): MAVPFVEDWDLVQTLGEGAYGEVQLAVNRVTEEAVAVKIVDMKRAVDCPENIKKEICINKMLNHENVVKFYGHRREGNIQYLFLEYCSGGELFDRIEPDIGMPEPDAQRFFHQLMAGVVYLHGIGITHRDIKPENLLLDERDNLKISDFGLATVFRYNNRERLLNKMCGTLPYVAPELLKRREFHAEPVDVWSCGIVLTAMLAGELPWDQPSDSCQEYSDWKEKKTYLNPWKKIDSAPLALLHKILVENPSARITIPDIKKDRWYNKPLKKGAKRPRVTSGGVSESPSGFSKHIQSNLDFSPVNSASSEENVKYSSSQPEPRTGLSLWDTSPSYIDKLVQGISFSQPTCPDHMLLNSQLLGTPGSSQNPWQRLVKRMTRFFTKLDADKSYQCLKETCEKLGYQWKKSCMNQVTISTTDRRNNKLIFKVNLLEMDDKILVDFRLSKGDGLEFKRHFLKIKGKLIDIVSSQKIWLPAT
Protocol: as §1

CaMK2a = target: T3, CaMK2a (Homo sapiens, UniProt Q9UQM7); conditions: read-out: % Inhibition at 10 μM Concentration, CaMK2alpha
T3 construct: CEREP, France (ran the assays)
Protocol: as §1

ERK1 = target: T4, ERK1 (Homo sapiens, UniProt P27361); conditions: read-out: % Inhibition at 10 μM Concentration, ERK1
T4 construct: CEREP, France (ran the assays)
Protocol: as §1

ERK2 (P42mapk) = target: T5, ERK2 (P42mapk) (Homo sapiens, UniProt P28482); conditions: read-out: % Inhibition at 10 μM Concentration, ERK (P42mapk)
T5 construct: CEREP, France (ran the assays)
Protocol: as §1

Fyn kinase = Fyn kinase (Homo sapiens, UniProt P06241); conditions: read-out: % Inhibition at 10 μM Concentration, Fyn
Protocol: as §1

IRK (InsR) = IRK (InsR) (Homo sapiens, UniProt P06213); conditions: read-out: % Inhibition at 10 μM Concentration, IRK (InsR)
Protocol: as §1

Lck kinase = Lck kinase (Homo sapiens, UniProt P06239); conditions: read-out: % Inhibition at 10 μM Concentration, Lck
Protocol: as §1

Lyn = Lyn (Homo sapiens, UniProt P07948); conditions: read-out: % Inhibition at 10 μM Concentration, Lyn
Protocol: as §1

PKCg = PKCg (Homo sapiens, UniProt P05129); conditions: read-out: % Inhibition at 10 μM Concentration, PKCgamma
Protocol: as §1

RSK2 = RSK2 (Homo sapiens, UniProt P51812); conditions: read-out: % Inhibition at 10 μM Concentration, RSK2
Protocol: as §1

Ret = Ret (Homo sapiens, UniProt P07949); conditions: read-out: % Inhibition at 10 μM Concentration, Ret
Protocol: as §1

Syk = Syk (Homo sapiens, UniProt P43405); conditions: read-out: % Inhibition at 10 μM Concentration, Syk
Protocol: as §1

c-Met kinase = target: T6, c-Met kinase (Homo sapiens, UniProt P08581); conditions: read-out: % Inhibition at 10 μM Concentration, c-Met
T6 construct: CEREP, France (ran the assays)
Protocol: as §1

p38a kinase = p38a kinase (Homo sapiens, UniProt Q16539); conditions: read-out: % Inhibition at 10 μM Concentration, p38alpha
Protocol: as §1

p38g kinase = target: T7, p38g kinase (Homo sapiens, UniProt P53778); conditions: read-out: % Inhibition at 10 μM Concentration, p38gamma
T7 sequence (P53778 1-367): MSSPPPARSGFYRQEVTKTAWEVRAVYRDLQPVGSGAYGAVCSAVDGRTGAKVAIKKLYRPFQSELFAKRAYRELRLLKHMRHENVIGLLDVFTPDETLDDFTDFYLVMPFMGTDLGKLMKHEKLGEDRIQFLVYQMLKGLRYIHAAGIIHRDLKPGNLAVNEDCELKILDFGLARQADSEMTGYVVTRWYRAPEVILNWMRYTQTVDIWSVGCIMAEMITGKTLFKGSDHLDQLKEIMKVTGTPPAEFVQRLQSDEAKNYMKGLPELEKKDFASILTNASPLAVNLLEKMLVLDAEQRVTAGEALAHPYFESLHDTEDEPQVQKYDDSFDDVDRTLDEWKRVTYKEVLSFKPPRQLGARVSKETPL
Protocol: as §1

Chain of p38a kinase (Q16539 whole entry): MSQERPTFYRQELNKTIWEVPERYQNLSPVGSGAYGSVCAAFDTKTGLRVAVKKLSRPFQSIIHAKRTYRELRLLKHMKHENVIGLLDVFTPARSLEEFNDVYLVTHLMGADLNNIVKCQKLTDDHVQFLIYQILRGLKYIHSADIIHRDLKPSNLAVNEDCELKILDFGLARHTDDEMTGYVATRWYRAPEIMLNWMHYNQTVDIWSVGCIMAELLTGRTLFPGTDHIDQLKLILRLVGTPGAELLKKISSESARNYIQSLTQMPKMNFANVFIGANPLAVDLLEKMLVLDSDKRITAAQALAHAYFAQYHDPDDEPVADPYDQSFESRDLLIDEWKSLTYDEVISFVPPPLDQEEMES
T5 sequence (P28482 whole entry): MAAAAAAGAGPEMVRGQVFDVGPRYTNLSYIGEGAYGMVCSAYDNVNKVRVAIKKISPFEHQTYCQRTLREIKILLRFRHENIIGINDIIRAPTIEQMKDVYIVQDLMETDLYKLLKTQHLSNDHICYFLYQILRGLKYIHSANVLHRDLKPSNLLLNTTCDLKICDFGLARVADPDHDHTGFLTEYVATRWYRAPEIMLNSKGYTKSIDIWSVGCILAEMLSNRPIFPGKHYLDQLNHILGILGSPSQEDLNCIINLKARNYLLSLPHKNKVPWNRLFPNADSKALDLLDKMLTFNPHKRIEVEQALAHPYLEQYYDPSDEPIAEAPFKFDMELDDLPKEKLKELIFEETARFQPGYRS
T3 sequence (Q9UQM7 whole entry): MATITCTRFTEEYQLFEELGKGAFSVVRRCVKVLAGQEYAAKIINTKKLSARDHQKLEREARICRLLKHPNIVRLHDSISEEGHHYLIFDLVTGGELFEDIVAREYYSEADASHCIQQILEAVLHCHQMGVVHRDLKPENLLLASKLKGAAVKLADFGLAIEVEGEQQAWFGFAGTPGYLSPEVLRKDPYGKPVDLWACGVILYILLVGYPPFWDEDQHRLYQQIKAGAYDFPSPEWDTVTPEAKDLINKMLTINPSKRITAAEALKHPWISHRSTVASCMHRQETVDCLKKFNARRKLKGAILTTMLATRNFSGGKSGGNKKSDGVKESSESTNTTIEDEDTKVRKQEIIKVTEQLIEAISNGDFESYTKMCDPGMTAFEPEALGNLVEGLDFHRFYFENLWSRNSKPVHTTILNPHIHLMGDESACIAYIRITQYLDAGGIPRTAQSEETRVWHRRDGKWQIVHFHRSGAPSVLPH
Chain of Fyn kinase (P06241 whole entry): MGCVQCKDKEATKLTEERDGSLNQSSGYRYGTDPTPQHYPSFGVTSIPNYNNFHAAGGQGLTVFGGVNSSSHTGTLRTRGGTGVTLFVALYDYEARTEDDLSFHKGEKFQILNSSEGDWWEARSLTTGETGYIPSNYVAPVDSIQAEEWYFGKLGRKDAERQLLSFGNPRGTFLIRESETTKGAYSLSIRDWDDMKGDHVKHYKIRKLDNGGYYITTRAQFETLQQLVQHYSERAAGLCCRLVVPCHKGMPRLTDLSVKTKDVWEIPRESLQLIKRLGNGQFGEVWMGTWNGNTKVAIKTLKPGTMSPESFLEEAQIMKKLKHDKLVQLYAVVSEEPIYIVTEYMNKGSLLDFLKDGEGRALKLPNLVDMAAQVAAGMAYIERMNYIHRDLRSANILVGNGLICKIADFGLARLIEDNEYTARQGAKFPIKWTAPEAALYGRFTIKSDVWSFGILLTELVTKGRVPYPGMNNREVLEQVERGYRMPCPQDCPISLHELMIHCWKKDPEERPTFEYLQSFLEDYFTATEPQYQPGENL
Chain of Lyn (P07948 whole entry): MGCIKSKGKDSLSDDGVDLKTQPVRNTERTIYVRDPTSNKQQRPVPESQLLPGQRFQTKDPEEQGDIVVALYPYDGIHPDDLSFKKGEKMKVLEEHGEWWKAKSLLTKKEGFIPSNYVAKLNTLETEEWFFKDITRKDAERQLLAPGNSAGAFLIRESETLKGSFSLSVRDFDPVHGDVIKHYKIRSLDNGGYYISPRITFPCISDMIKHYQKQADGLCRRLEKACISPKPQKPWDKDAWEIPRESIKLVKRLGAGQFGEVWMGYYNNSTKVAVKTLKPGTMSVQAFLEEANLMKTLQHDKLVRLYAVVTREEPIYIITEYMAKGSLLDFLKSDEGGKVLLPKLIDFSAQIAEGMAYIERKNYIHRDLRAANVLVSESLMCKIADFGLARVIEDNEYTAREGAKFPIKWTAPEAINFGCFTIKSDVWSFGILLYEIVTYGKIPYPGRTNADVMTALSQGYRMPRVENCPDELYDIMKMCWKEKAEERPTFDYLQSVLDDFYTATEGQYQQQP
Chain of RSK2 (P51812 whole entry): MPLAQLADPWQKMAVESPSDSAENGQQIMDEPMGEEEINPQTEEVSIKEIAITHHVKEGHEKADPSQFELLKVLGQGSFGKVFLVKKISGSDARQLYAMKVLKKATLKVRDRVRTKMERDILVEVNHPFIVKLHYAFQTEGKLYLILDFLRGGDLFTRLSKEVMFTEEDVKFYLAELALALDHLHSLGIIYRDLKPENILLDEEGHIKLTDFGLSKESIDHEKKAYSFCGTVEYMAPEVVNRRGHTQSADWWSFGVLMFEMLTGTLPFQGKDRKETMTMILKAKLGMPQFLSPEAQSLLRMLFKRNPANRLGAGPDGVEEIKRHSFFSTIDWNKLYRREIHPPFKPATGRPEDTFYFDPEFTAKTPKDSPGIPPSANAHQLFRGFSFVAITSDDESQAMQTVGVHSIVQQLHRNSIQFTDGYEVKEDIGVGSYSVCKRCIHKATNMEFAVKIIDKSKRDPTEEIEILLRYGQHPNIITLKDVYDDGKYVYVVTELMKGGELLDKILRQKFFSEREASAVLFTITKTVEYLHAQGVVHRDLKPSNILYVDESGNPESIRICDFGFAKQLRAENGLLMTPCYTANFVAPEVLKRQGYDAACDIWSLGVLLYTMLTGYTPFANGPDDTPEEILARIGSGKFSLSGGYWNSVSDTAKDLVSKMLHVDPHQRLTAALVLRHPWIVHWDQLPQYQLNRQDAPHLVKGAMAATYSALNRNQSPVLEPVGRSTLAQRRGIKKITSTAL
Chain of Ret (P07949 29-1114): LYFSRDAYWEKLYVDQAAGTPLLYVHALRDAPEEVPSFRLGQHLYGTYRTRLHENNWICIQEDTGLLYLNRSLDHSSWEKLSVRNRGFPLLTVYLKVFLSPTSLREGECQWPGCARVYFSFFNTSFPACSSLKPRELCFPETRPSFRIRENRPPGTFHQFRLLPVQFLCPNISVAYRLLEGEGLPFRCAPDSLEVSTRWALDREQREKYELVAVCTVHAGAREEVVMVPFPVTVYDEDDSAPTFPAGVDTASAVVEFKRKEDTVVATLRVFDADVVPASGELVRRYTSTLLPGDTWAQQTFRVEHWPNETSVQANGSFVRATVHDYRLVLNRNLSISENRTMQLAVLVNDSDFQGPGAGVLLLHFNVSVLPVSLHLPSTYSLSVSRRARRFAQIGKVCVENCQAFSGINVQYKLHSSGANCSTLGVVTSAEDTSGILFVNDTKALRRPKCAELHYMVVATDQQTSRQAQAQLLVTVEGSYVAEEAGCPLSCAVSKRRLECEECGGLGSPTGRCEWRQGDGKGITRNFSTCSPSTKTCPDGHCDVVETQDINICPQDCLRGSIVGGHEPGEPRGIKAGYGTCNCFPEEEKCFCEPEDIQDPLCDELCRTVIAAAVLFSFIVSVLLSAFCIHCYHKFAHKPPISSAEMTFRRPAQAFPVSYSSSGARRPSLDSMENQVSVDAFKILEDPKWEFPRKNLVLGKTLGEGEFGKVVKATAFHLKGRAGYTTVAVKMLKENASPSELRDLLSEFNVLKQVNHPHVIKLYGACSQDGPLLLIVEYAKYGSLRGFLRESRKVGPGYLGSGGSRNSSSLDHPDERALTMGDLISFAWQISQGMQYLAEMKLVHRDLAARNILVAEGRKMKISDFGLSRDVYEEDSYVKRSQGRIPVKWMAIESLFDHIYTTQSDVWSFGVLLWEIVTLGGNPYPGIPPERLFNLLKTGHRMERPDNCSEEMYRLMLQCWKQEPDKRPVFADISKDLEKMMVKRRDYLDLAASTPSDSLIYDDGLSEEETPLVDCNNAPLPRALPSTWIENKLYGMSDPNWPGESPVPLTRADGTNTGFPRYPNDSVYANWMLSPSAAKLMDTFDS

Structure (SMILES)	inhibition at 10 µM (Akt1/PKBa) [%]	inhibition at 10 µM (CHK1) [%]	inhibition at 10 µM (CaMK2a) [%]	inhibition at 10 µM (ERK1) [%]	inhibition at 10 µM (ERK2 (P42mapk)) [%]	inhibition at 10 µM (Fyn kinase) [%]	inhibition at 10 µM (IRK (InsR)) [%]	inhibition at 10 µM (Lck kinase) [%]	inhibition at 10 µM (Lyn) [%]	inhibition at 10 µM (PKCg) [%]	inhibition at 10 µM (RSK2) [%]	inhibition at 10 µM (Ret) [%]	inhibition at 10 µM (Syk) [%]	inhibition at 10 µM (c-Met kinase) [%]	inhibition at 10 µM (p38a kinase) [%]	inhibition at 10 µM (p38g kinase) [%]
O=C1Nc2ccccc2/C1=C\c1ccc2cn[nH]c2c1 [Example A5, (E)-3-((1H-indazol-6-yl)methylene)indolin-2-one]	-4	-2	-3	6	0	5	12	0	-5	-6	1	41	-3	2	18	5
COc1ccc2c(c1)C(=Cc1ccc3c(-c4ccc(N5CCN(C)CC5)nc4)n[nH]c3c1)C(=O)N2 (mixture of isomers) [Example A97, (E and Z)-5-methoxy-3-((3-(6-(4-methylpiperazin-1-yl)pyridin-3-yl)-1H-indazol-6-yl)methylene)indolin-2-one]	-4	3	14	10	-9	13	9	89	85	0	37	93	21	28	11	1
O=C1Nc2ccccc2/C1=C\c1ccc2[nH]nnc2c1 [Example A1, (E)-3-((1H-benzo[d][1,2,3]triazol-5-yl)methylene)indolin-2-one]	-3	-6	4	6	3	24	13		14	9	4	67	-2	-20	-8	14
O=C1Nc2ccccc2C1=Cc1ccc2c(/C=C/c3ccccn3)n[nH]c2c1 (mixture of isomers) [Example A41, (E and Z)-3-((3-((E)-2-(pyridin-2-yl)vinyl)-1H-indazol-6-yl)methylene)indolin-2-one]	-3	7	31	13	14	91	34	88	98	0	38	98	70	35	16	2
O=C1Nc2ccccc2/C1=C\c1ccc2c(/C=C/c3ccccc3Cl)n[nH]c2c1 [Example A60, (E)-3-((3-((E)-2-chlorostyryl)-1H-indazol-6-yl)methylene)indolin-2-one]	-14	-1	-2	1	2	70	6	30	88	3	0	33		0	1	10
